From US6841680B2, “N-type calcium channel antagonists for the treatment of pain” (AstraZeneca AB, priority 2000, dated 2005)

Target: N-type calcium channel (Homo sapiens, UniProt Q00975)
Experiment: N-Channel FLIPR assay (IMR32 cells, 80 mM K+ evoked calcium flux)
Format: cell-based
Details: unit inferred

Chain of N-type calcium channel (Q00975 whole entry): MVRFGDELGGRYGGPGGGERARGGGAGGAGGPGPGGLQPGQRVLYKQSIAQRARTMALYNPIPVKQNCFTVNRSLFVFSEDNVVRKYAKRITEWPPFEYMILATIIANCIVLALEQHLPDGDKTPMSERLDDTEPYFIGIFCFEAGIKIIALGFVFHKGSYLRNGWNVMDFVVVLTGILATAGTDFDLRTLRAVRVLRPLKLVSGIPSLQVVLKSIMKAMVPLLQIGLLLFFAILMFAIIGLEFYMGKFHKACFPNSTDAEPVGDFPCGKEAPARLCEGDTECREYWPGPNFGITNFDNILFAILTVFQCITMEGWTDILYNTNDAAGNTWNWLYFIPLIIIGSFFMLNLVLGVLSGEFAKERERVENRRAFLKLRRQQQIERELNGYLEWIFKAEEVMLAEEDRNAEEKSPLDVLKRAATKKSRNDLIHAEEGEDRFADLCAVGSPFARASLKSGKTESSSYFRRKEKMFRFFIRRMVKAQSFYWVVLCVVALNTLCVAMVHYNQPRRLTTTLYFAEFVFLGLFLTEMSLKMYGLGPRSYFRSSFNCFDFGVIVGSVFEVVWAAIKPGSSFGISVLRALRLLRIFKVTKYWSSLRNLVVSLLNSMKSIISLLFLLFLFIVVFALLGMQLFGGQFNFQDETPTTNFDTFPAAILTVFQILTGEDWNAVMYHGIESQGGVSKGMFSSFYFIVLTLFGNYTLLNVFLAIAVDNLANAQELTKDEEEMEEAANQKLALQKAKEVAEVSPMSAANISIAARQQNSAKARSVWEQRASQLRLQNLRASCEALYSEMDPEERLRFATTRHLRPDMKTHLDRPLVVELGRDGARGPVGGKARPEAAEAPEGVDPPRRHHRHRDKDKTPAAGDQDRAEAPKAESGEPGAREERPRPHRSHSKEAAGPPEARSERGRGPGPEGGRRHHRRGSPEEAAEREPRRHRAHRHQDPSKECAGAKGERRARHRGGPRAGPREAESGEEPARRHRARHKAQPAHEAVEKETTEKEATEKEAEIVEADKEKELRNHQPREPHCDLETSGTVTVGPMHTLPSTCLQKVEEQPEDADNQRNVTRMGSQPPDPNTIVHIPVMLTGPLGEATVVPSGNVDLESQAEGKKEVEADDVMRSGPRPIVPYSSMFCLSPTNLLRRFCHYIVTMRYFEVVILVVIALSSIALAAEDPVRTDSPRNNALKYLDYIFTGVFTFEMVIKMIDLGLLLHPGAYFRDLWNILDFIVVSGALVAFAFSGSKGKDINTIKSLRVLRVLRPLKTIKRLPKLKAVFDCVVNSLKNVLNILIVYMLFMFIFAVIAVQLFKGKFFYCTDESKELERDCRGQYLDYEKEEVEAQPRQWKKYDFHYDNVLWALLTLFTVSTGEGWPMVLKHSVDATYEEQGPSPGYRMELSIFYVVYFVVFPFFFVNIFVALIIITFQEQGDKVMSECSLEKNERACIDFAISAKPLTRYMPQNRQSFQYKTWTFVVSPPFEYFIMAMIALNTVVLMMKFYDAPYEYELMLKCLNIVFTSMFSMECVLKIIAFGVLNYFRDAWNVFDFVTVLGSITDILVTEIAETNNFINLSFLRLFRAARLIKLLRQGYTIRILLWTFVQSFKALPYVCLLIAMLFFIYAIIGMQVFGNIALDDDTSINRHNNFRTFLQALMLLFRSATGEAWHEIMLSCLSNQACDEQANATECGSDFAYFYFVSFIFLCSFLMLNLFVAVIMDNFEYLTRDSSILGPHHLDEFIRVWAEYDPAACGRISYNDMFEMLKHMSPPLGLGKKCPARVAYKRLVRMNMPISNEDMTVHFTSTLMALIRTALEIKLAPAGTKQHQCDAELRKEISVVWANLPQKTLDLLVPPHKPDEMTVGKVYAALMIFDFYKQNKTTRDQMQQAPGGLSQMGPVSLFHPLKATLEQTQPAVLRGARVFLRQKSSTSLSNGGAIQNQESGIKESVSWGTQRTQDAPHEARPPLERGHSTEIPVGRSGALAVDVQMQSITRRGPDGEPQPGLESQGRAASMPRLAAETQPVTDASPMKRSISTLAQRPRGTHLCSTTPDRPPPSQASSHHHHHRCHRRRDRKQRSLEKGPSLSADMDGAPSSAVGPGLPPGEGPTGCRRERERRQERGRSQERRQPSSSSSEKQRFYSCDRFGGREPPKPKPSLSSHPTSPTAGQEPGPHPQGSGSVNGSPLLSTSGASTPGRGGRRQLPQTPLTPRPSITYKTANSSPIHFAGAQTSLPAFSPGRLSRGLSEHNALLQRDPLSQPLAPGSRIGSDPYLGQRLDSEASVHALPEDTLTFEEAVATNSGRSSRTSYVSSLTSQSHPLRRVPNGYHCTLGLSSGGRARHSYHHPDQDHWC
Chain of N-type calcium channel (P54289 25-1103 partner): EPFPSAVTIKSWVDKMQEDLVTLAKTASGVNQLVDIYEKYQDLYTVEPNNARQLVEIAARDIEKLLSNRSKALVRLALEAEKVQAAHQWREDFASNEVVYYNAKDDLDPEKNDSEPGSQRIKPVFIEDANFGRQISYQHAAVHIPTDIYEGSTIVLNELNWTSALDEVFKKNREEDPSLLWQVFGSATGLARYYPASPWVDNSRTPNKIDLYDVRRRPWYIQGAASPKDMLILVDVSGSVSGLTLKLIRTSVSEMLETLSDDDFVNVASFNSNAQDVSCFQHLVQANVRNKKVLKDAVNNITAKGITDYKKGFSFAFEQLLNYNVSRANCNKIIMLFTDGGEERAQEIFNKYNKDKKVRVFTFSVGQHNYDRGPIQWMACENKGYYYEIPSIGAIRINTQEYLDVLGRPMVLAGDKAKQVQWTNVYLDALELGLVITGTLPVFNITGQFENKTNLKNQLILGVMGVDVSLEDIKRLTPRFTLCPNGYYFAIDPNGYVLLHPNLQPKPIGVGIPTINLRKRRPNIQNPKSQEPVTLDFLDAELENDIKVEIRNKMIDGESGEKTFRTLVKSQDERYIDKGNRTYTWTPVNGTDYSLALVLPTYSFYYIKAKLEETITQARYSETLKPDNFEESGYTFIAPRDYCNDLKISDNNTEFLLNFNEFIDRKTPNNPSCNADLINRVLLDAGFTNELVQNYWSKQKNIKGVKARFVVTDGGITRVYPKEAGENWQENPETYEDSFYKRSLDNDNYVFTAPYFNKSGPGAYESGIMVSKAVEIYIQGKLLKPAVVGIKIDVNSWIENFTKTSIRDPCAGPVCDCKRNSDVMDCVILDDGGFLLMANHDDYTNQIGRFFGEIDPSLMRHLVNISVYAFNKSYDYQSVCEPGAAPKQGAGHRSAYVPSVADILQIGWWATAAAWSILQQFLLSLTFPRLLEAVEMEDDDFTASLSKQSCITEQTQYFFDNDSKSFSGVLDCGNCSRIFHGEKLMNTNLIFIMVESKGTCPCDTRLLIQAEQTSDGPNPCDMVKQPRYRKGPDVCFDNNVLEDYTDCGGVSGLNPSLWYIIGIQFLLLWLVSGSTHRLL
Chain of N-type calcium channel (P54284 whole entry partner): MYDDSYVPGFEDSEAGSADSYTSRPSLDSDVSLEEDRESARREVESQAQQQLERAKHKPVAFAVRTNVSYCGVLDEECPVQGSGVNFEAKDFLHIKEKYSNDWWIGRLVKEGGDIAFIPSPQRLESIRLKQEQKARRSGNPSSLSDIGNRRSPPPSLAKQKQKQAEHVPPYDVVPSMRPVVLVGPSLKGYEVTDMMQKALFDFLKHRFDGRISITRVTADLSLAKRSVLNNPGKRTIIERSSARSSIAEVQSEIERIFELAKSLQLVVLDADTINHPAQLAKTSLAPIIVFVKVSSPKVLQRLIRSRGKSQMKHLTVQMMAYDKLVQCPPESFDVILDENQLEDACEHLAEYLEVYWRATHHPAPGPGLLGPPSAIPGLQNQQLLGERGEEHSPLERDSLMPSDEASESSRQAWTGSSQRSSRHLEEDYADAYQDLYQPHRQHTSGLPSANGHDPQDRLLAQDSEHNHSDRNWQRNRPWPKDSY

Row | SMILES | IC50 [µM]
1 | CNc1cc(-c2cccc(F)c2)nc2ccc(-c3ccccc3)cc12 [Example 13, 2-(3-fluorophenyl)-6-phenyl-4-methylaminoquinoline] | 8.6
2 | CNc1cc(-c2cccc(F)c2)nc2ccc(-c3ccccc3C)cc12 [Example 14, 2-(3-fluorophenyl)-6-(2-methylphenyl)-4-methylaminoquinoline] | 8.82
3 | CNc1cc(-c2cccc(F)c2)nc2ccc(-c3ccccc3C=O)cc12 [Example 15, 2-[2-(3-fluorophenyl)-4-(methylamino)-6-quinolinyl]-benzaldehyde] | 5.38

Continued, values first:

Row | IC50 [µM] | SMILES
4 | 10.5 | CNc1cc(-c2cccc(F)c2)nc2ccc(-c3ccccc3Cl)cc12 [Example 12, 2-(3-fluorophenyl)-6-(2-chlorophenyl)-4-methylaminoquinoline]
5 | 5.78 | CNc1cc(-c2cccc(F)c2)nc2ccc(-c3ccccc3OC)cc12 [Example 16, 2-(3-fluorophenyl)-6-(2-methoxyphenyl)-4-methylaminoquinoline]

Tested on: NK-1 receptor
Experiment: not given
Details: phenylbenzoquinone-induced writhing and formalin test; Garret et al; cited from earlier work

Row | SMILES | analgesia
6 | COc1ccccc1CC(=N)N1C[C@@H]2C(=O)CCC(c3ccccc3)(c3ccccc3)[C@@H]2C1 [RP 67,580] | produced analgesia with potency comparable to that of morphine
